pIC50: −log10 of the molar value.
Tests used:
[1] = target: SARS-CoV-2 Main Protease (SARS-CoV-2) (UniProt P0DTD1)
[2] = target: SARS-CoV-2 Main Protease (SARS-CoV-2) (UniProt P0DTD1); remark: listed apart in the source

| SMILES | inhibition ([1]; 20.0 µM) | relative solubility at 20 uM | relative solubility at 100 uM | inhibition ([2]; 20.0 µM) | inhibition ([2]; 50.0 µM) | inhibition ([1]; 50.0 µM) | pIC50 [1] |
| --- | --- | --- | --- | --- | --- | --- | --- |
| C=CC(=O)N(c1ccc(C(C)OC)cc1)C(C(=O)NC(C)(C)C)c1cccnc1 (stereo not drawn) | 0% | 0.98 | 0.86 | 7.07% | 15.9% | – | – |
| CCCN(CC1COc2ccccc2O1)C(=O)c1cc(=O)[nH]c2cc(F)ccc12 (stereo not drawn) | – | 0.98 | 0.98 | 5.21% | 8.33% | 0% | – |
| O=C1C(=O)N(Cc2ccc(Br)cc2)c2ccccc21 | – | 1.01 | 0.9 | -3.27% | 0.439% | 100% | 6.13 |
| O=S(=O)(NC1(Cc2ccccc2)CCOCC1)c1cccnc1 | – | 1 | 1 | -34.8% | 3.06% | 11.6% | – |
| C=CC(=O)N(c1ccc(N2CCC2)cc1)C(C(=O)NC(C)(C)C)c1cccnc1 (stereo not drawn) | 0% | 0.97 | 0.93 | -18.5% | -17.3% | – | – |
| O=C(NCCc1cccc2ccccc12)c1cc(=O)[nH]c2ccccc12 | – | 0.87 | 0.73 | -40.9% | 4.42% | 7.36% | – |
| Cc1cccc(NC(=O)C(C#N)C(=O)CC(C)C)c1 (stereo not drawn) | 0% | 1 | 1 | – | -0.258% | 0% | – |
| O=C1CC[C@@H](C(=O)Nc2cccc(Cl)c2)CN1 (stereo in doubt) | – | 1 | 1 | -24% | -3.68% | -12% | – |
| C=CC(=O)N(c1ccc(SC)cc1)C(C(=O)Nc1ccc(Cl)cc1)c1cccnc1 (stereo not drawn) | 9.4% | 0.81 | 0.64 | 16.9% | 32.3% | – | – |
| C=CC(=O)N(c1ccc(N(C)C)c(C)c1)C(C(=O)Nc1cccc(CC)c1)c1cccnc1 (stereo not drawn) | 0% | 0.85 | 0.68 | 7.05% | 11.7% | – | – |
| NC1=Nc2nc3ccccc3n2C(c2ccc(-c3nc4ccccc4s3)o2)N1 (stereo not drawn) | – | 0.53 | 0.23 | -25.2% | -3.34% | 38.8% | – |
| O=C(Nc1ccnnc1)NC(Cc1ccccc1)C(=O)N1CCCC1 (stereo not drawn) | 0% | 1 | 1 | 0.0835% | 3.23% | 0% | – |
| O=C(Nc1cccnc1)c1cccc(Cl)c1 | 0% | 1 | 0.92 | 5.47% | 6.67% | – | – |
| CCCNC(=O)C(C)NC(=O)N(C)Cc1csc(C)n1 (stereo not drawn) | 0% | 1 | 1 | 0.814% | -2.74% | – | – |
| Cc1cc(Cl)cc(NC(=O)Nc2cccnc2)c1 | 0% | 1 | 1 | – | 12.7% | 35.4% | – |
| CS(=O)(=O)NCCc1cccc(O)c1 | -2.45% | 1 | 1 | -1.8% | 0.0445% | 1.46% | – |
| C=CC(=O)N(c1ccc(N(C)C)c(C)c1)C(C(=O)Nc1ccc(OC)cc1C)c1cccnc1 (stereo not drawn) | 0% | 0.87 | 0.83 | 2.51% | 7.01% | – | – |
| O=C(CCl)N1CCOc2cccc(-c3cccnc3)c21 | – | 1 | 1 | 1.76% | 7.44% | -5.89% | – |
| O=C(CC(=O)N1CCOCC1)Nc1ccccc1 | 0% | 1 | 1.01 | – | -26.9% | 0% | – |

Source: the COVID Moonshot data (paper PMC11187573), “Identification of SARS-CoV-2 Mpro inhibitors through deep reinforcement learning for de novo drug design and computational chemistry approaches” (RSC Medicinal Chemistry, 2024)
